{
  "source": "patent US20070166710A1",
  "about": "“Methods for inhibiting adipogenesis and for treating type 2 diabetes” (priority 2003, published 2007)",
  "key": {"Foxa-2 [1]": {"tested_on": "Foxa-2", "test": "Nuclear Foxa-2 in perfused livers, immunoblotting", "assay_type": "in vivo, mice"}, "Foxa-2 [2]": {"tested_on": "Foxa-2", "test": "Immunoblot of phospho-TI56 Foxa-2 in livers after intraportal insulin", "assay_type": "in vivo, mice", "experimental": "FIG. 15a is an immunoblot of Foxa-2 and Foxo-1 in liver nuclear extracts of fed (n=3) and starved (n=3) mice. Anti-TATA binding protein (Tbp) antibodies were used as a loading control. FIGS. 15b and 15c are immunoblots of Foxa-2 and Foxo-1 in nuclear extracts of livers from mice perfused with different concentrations of insulin. FIG. 15d is a Western blot of Foxa-2 immunoprecipitated with anti-Foxa-2 antibodies from whole cell extracts of livers obtained from fasted mice 30 minutes after injection of 10 ng insulin or PBS in the portal vein. Samples (n=3 for each group) were analyzed by immunoblot analysis with an antibody directed against phospho-TI56 Foxa-2 (top panel) or with an antibody directed against total Foxa-2 protein (bottom panel). […]\nThe role of Foxa-2 in the regulation of liver gene expression by nutritional status was examined by determining the intracellular localization of Foxa-2 in fasted and fed mice by Western blotting of Foxa-2 in liver nuclear extracts and by immunohistochemistry. […] Strong Foxa-2 immunostaining was detected in hepatocyte nuclei of control (PBS) mice. […] Foxa-2 protein levels were measured in liver nuclei of C57/B6 mice that were perfused with a buffer containing a range of insulin concentrations that included fasting and postprandial insulin levels (0.2 and 4.0 ng/ml, respectively). […] Foxa-2 levels were determined by immunoblotting. […]"}},
  "data": [
    {"substance": "insulin: Insulin was from Sigma; hormone used as stimulus", "values": [
      {"measurement": "increase in nuclear Foxa-2 levels", "setting": "Foxa-2 [1]; in response to insulin stimulation, within 5-20 minutes", "result": "> 20", "unit": "fold"},
      {"measurement": "change in nuclear Foxa-2 expression", "setting": "Foxa-2 [1]; livers exposed to low (fasting) vs high (postprandial) insulin levels", "result": "> 20", "unit": "fold"},
      {"measurement": "nuclear Foxa-2 level", "setting": "Foxa-2 [1]; perfusion with 2.0 ng/ml insulin, 20 minutes", "result": "barely detectable levels"},
      {"measurement": "phosphorylated Foxa-2 detected by anti-phospho TI56 peptide antibody", "setting": "Foxa-2 [2]; intraportal injection of insulin vs PBS", "result": "recognized phosphorylated Foxa-2"},
      {"measurement": "Foxa-2 protein levels (anti-Foxa-2 antibodies)", "setting": "Foxa-2 [2]; treated vs untreated livers", "result": "the same"}
    ]}
  ]
}
